We go through four compounds from US6585991B1, “Termite bait matrix” (The United States of America as represented by the …, priority 1999, dated 2003).

Assay [1] deals with termite workers and soldiers. Briefly: Non-choice tests of antibiotics and a fungus inhibitor in bait matrix. Type of assay: in vivo. As to conditions: 100 ppm in bait matrix; after three weeks of exposure. As for the experimental part: Non-choice tests using five different antibiotics (streptomycin sulfate, rifampicin, albendazole, neomycin sulfate, and antimycotic) and a fungus inhibitor (sorbic acid) were conducted at four different concentrations (100, 250, 500, and 1000 ppm). Individual chemicals were mixed with the bait matrix of Example 3 at each concentration and 10 g samples of each were transferred to sterile plastic Petri dishes and exposed to groups of 20 termite workers and two soldiers. Five repetitions per treatment were done. The dishes were kept in a Percival incubator under dark conditions at 27±1° C. and 80% relative humidity. A control containing no antibiotic or fungus inhibitor was prepared and kept under the same conditions as the treatments. Time required to reach 100% mortality was recorded.

The test system of assay [2] is termite. As to conditions: 125 ppm hexaflumuron in a matrix composed of spruce sawdust; cited from earlier work.
Assay [3] has as its system Formosan subterranean termite colony. Briefly: Pair choice test, yellow pine versus bait matrix mixed with hexaflumuron. Type of assay: in vivo, Coptotermes formosanus. As to conditions: 50 ppm hexaflumuron in bait matrix; period of 10 weeks; colony of 1500. As for the experimental part:
To determine the acceptance by the Formosan subterranean termite of the bait matrix of Example 3 with toxic chemicals added, a pair choice test between a 25 g piece of yellow pine and an equivalent amount of bait matrix mixed with 50-ppm hexaflumuron was performed. Both pine and bait matrix were exposed to a Formosan termite colony composed of 1500 soldiers, workers, and nymphs, housed in a plastic Sterilite container containing 2L topsoil:sand (1:1) at 40% relative humidity. The treatment box was maintained under dark conditions at 26±3° C. A control, 12″ yellow pine wood stakes without hexaflumuron, was prepared and kept at the same conditions as the treatment.

For the compound `CCCSc1ccc2nc(NC(=O)OC)[nH]c2c1` [albendazole], in assay [1], the Mortality worked out at 40%.

On to `O=C(NC(=O)c1c(F)cccc1F)Nc1cc(Cl)c(OC(F)(F)C(F)F)c(Cl)c1` [hexaflumuron], for which the “Mortality compared with 50 ppm in bait matrix (100% in 10 weeks)” value in assay [2] is “equivalent”. The same compound gave a Mortality in assay [3] of 100%. In assay [1], `C/C=C/C=C/C(=O)O` [sorbic acid] showed a Mortality of 33%.

neomycin sulfate displayed a Mortality in assay [1] of 40%.
